Measured values published in patent US8475786B2, “Long-lasting absorption of flavonoids” (Nestec S.A., priority 2006, dated 2013).

Assay: Plasma hesperetin levels after ingestion (FIG. 2)
Type: in vivo
Excerpt: FIG. 2 is a graph comparing the plasma hesperetin levels depending on whether hesperetin-7-glucoside alone is ingested, whether hesperidin alone is ingested or whether a composition according to the present invention is consumed.
Without wishing to be bound by theory, it is thought that this is due to the presence of enzymes which are able to cleave the glucose moiety off, such that hesperetin is readily absorbable.
Without wishing to be bound by theory, it is thought that this is due to the presence of enzymes able to cleave the rutinose moiety of hesperidin only at a later stage of passage through the gastro-intestinal tract.
Thus, the compositions of the present invention advantageously provide a plasma level of hesperetin which is sustained over a longer period of time (cf. FIG. 2).
Indeed, after the ingestion of the compositions of the present invention, the hesperetin plasma levels are maintained for a sustained period of time (FIG. 2).

SMILES | plasma level of hesperetin (in vivo) | plasma level of hesperetin (after ingestion, FIG. 2)
COc1ccc(C2CC(=O)c3c(O)cc(OC4OC(CO)C(O)C(O)C4O)cc3O2)cc1O (centres unmarked) [hesperetin-7-glucose, hesperetin-7-glucoside] | sharp peak shortly after ingestion | 
COc1ccc([C@@H]2CC(=O)c3c(O)cc(O[C@@H]4O[C@H](CO[C@@H]5O[C@@H](C)[C@H](O)[C@@H](O)[C@H]5O)[C@@H](O)[C@H](O)[C@H]4O)cc3O2)cc1O [hesperidin] |  | appears only later and to a smaller extent
